Results published in patent publication US5502035A, “N-terminus modified analogs of LHRH” (Tap Holdings Inc., priority 1994, dated 1996).
Non-standard residues stand in square brackets, D forms with d. Residues, ends and D or L forms follow the SMILES beside them. Groups on a side chain read outwards from the residue. *: point of attachment. NMePhe(4-NO2) = CN[C@@H](Cc1ccc([N+](=O)[O-])cc1)C(=O)O; Shikimoyl = O=C(C1=C[C@@H](O)[C@@H](O)[C@H](O)C1)*; Quinoline3carbonyl = O=C(c1cnc2ccccc2c1)*; dPhe(4-Cl) = N[C@H](Cc1ccc(Cl)cc1)C(=O)O; d2Nal = N[C@H](Cc1ccc2ccccc2c1)C(=O)O; NMeY = CN[C@@H](Cc1ccc(O)cc1)C(=O)O; NMeF = CN[C@@H](Cc1ccccc1)C(=O)O; hArg = N=C(N)NCCCC[C@H](N)C(=O)O; d3Pal = N[C@H](Cc1cccnc1)C(=O)O; Nicotinoyl = O=C(c1cccnc1)*; 2Furoyl = O=C(c1ccco1)*; Aze = O=C(O)[C@@H]1CCN1; βAla = NCCC(=O)O

Biological target: T1, LHRH (Rattus norvegicus, UniProt P30969)
T1 construct: endogenous in cells; host or cells: rat pituitary cells (own knowledge of the cited Haviv 1989 method)
T1 sequence (P30969 1-327): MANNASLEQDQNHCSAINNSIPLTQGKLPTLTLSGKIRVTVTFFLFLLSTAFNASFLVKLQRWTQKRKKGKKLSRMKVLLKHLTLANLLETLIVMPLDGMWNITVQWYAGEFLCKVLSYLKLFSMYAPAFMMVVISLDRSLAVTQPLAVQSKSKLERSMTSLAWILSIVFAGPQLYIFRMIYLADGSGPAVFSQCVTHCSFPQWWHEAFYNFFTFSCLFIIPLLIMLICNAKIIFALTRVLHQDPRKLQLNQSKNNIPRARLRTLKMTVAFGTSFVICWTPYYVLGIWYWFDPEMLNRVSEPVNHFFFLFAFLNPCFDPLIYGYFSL
Test: in vitro test for LHRH antagonist potency (pA2)
Assay type: cell-based
Details: negative logarithm of the antagonist concentration required to shift the response curve produced by the agonist leuprolide to two-fold higher concentration
Summary of the method: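 Antagonism read against the agonist leuprolide on rat LHRH receptor; value is pA2, the −log of antagonist concentration that doubles the agonist concentration needed for the same response.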

## CC(C)C[C@H](NC(=O)[C@@H](CCCCNC(=O)C1=C[C@@H](O)[C@@H](O)[C@H](O)C1)NC(=O)[C@H](Cc1ccc(O)cc1)N(C)C(=O)[C@H](CO)NC(=O)[C@@H](Cc1cccnc1)NC(=O)[C@@H](Cc1ccc(Cl)cc1)NC(=O)[C@@H](Cc1ccc2ccccc2c1)NC(=O)CNC(=O)c1cccnc1)C(=O)N[C@@H](CCCNC(=N)N)C(=O)N1CC[C@H]1C(=O)N[C@H](C)C(N)=O [Example 24, N-Nicotinyl-Gly-D2Nal-D4ClPhe-D3Pal-Ser-NMeTyr-DLys(Shikimyl)-Leu-Arg-Aze-DAlaNH2] (Nicotinoyl-G[d2Nal][dPhe(4-Cl)][d3Pal]S[NMeY][dK](Shikimoyl)LR[Aze][dA]-NH2)
  Kb: 0.0282 nM

## CC(C)C[C@H](NC(=O)[C@@H](CCCCNC(=O)C1=C[C@@H](O)[C@@H](O)[C@H](O)C1)NC(=O)[C@H](Cc1ccc(O)cc1)N(C)C(=O)[C@H](CO)NC(=O)[C@@H](Cc1cccnc1)NC(=O)[C@@H](Cc1ccc(Cl)cc1)NC(=O)[C@@H](Cc1ccc2ccccc2c1)NC(=O)CNC(=O)c1cccnc1)C(=O)N[C@@H](CCCCNC(=N)N)C(=O)N1CCC[C@H]1C(=O)N[C@H](C)C(N)=O [Example 25a, N-Nicotinyl-Gly-D2Nal-D4ClPhe-D3Pal-Ser-NMeTyr-DLys(Shik)-Leu-Harg-Pro-DAlaNH2] (Nicotinoyl-G[d2Nal][dPhe(4-Cl)][d3Pal]S[NMeY][dK](Shikimoyl)L[hArg]P[dA]-NH2)
  Kb: 0.0141 nM

## CC(C)C[C@H](NC(=O)[C@@H](CCCCNC(=O)C1=C[C@@H](O)[C@@H](O)[C@H](O)C1)NC(=O)[C@H](Cc1ccc(O)cc1)N(C)C(=O)[C@H](CO)NC(=O)[C@@H](Cc1cccnc1)NC(=O)[C@@H](Cc1ccc(Cl)cc1)NC(=O)[C@@H](Cc1ccc2ccccc2c1)NC(=O)[C@@H](CO)NC(=O)c1cccnc1)C(=O)N[C@@H](CCCCNC(=N)N)C(=O)N1CCC[C@H]1C(=O)N[C@H](C)C(N)=O [Example 25b, N-Nicotinyl-DSer-D2Nal-D4ClPhe-D3Pal-Ser-NMeTyr-DLys(Shikimyl)-Leu-Harg-Pro-DAlaNH2] (Nicotinoyl-[dS][d2Nal][dPhe(4-Cl)][d3Pal]S[NMeY][dK](Shikimoyl)L[hArg]P[dA]-NH2)
  Kb: 0.00794 nM

## CC(C)C[C@H](NC(=O)[C@@H](CCCCNC(=O)C1=C[C@@H](O)[C@@H](O)[C@H](O)C1)NC(=O)[C@H](Cc1ccc(O)cc1)N(C)C(=O)[C@H](CO)NC(=O)[C@@H](Cc1cccnc1)NC(=O)[C@@H](Cc1ccc(Cl)cc1)NC(=O)[C@@H](Cc1ccc2ccccc2c1)NC(=O)CNC(=O)c1ccco1)C(=O)N[C@@H](CCCCNC(=N)N)C(=O)N1CCC[C@H]1C(=O)N[C@H](C)C(N)=O [Example 25c, N-(2-Furoyl)-Gly-D2Nal-D4ClPhe-D3Pal-Ser-NMeTyr-DLys(Shik)-Leu-Harg-Pro-DAlaNH2] (2Furoyl-G[d2Nal][dPhe(4-Cl)][d3Pal]S[NMeY][dK](Shikimoyl)L[hArg]P[dA]-NH2)
  Kb: 0.0017 nM

## CC(C)C[C@H](NC(=O)[C@@H](CCCCNC(=O)C1=C[C@@H](O)[C@@H](O)[C@H](O)C1)NC(=O)[C@H](Cc1ccc(O)cc1)N(C)C(=O)[C@H](CO)NC(=O)[C@@H](Cc1cccnc1)NC(=O)[C@@H](Cc1ccc(Cl)cc1)NC(=O)[C@@H](Cc1ccc2ccccc2c1)NC(=O)CNC(=O)C1=C[C@@H](O)[C@@H](O)[C@H](O)C1)C(=O)N[C@@H](CCCCNC(=N)N)C(=O)N1CCC[C@H]1C(=O)N[C@H](C)C(N)=O [Example 25d, N-Shikimyl-Gly-D2Nal-D4ClPhe-D3Pal-Ser-NMeTyr-DLys(Shik)-Leu-Harg-Pro-DAlaNH2] (Shikimoyl-G[d2Nal][dPhe(4-Cl)][d3Pal]S[NMeY][dK](Shikimoyl)L[hArg]P[dA]-NH2)
  Kb: 0.0339 nM

## CC(C)C[C@H](NC(=O)[C@@H](CCCCNC(=O)CNC(=O)C1=C[C@@H](O)[C@@H](O)[C@H](O)C1)NC(=O)[C@H](Cc1ccc(O)cc1)N(C)C(=O)[C@H](CO)NC(=O)[C@@H](Cc1cccnc1)NC(=O)[C@@H](Cc1ccc(Cl)cc1)NC(=O)[C@@H](Cc1ccc2ccccc2c1)NC(=O)CNC(=O)c1cccnc1)C(=O)N[C@@H](CCCCNC(=N)N)C(=O)N1CCC[C@H]1C(=O)N[C@H](C)C(N)=O [Example 25e, N-Nicotinyl-Gly-D2Nal-D4ClPhe-D3Pal-Ser-NMeTyr-DLys(Gly-Shik)-Leu-Harg-Pro-DAlaNH2] (Nicotinoyl-G[d2Nal][dPhe(4-Cl)][d3Pal]S[NMeY][dK]([Gly-Shikimoyl])L[hArg]P[dA]-NH2)
  Kb: 0.00339 nM

## CC(C)C[C@H](NC(=O)[C@@H](CCCCNC(=O)c1cccnc1)NC(=O)[C@H](Cc1ccc(O)cc1)N(C)C(=O)[C@H](CO)NC(=O)[C@@H](Cc1cccnc1)NC(=O)[C@@H](Cc1ccc(Cl)cc1)NC(=O)[C@@H](Cc1ccc2ccccc2c1)NC(=O)CNC(=O)c1cccnc1)C(=O)N[C@@H](CCCCNC(=N)N)C(=O)N1CCC[C@H]1C(=O)N[C@H](C)C(N)=O [Example 25f, N-Nicotinyl-Gly-D2Nal-D4ClPhe-D3Pal-Ser-NMeTyr-DLys(Nicotinyl)-Leu-Harg-Pro-DAlaNH2] (Nicotinoyl-G[d2Nal][dPhe(4-Cl)][d3Pal]S[NMeY][dK](Nicotinoyl)L[hArg]P[dA]-NH2)
  Kb: 0.0234 nM

## CC(C)C[C@H](NC(=O)[C@@H](CCCCNC(=O)C1=C[C@@H](O)[C@@H](O)[C@H](O)C1)NC(=O)[C@H](Cc1ccc(O)cc1)N(C)C(=O)[C@H](CO)NC(=O)[C@@H](Cc1cccnc1)NC(=O)[C@@H](Cc1ccc(Cl)cc1)NC(=O)[C@@H](Cc1ccc2ccccc2c1)NC(=O)CNC(=O)c1cnc2ccccc2c1)C(=O)N[C@@H](CCCCNC(=N)N)C(=O)N1CCC[C@H]1C(=O)N[C@H](C)C(N)=O [Example 25g, N-(3-Quinolinylcarbonyl)-Gly-D2Nal-D4ClPhe-D3Pal-Ser-NMeTyr-DLys(Shikimyl)-Leu-Harg-Pro-DAlaNH2] (Quinoline3carbonyl-G[d2Nal][dPhe(4-Cl)][d3Pal]S[NMeY][dK](Shikimoyl)L[hArg]P[dA]-NH2)
  Kb: 0.0324 nM

## CC(C)C[C@H](NC(=O)[C@@H](CCCCNC(=O)C1=C[C@@H](O)[C@@H](O)[C@H](O)C1)NC(=O)[C@H](Cc1ccccc1)N(C)C(=O)[C@H](CO)NC(=O)[C@@H](Cc1cccnc1)NC(=O)[C@@H](Cc1ccc(Cl)cc1)NC(=O)[C@@H](Cc1ccc2ccccc2c1)NC(=O)CNC(=O)c1cccnc1)C(=O)N[C@@H](CCCCNC(=N)N)C(=O)N1CCC[C@H]1C(=O)N[C@H](C)C(N)=O [Example 26a, N-Nicotinyl-Gly-D2Nal-D4ClPhe-D3Pal-Ser-NMePhe-DLys(Shik)-Leu-Harg-Pro-DAlaNH2] (Nicotinoyl-G[d2Nal][dPhe(4-Cl)][d3Pal]S[NMeF][dK](Shikimoyl)L[hArg]P[dA]-NH2)
  Kb: 0.0275 nM

## CC(C)C[C@H](NC(=O)[C@@H](CCCCNC(=O)C1=C[C@@H](O)[C@@H](O)[C@H](O)C1)NC(=O)[C@H](Cc1ccc([N+](=O)[O-])cc1)N(C)C(=O)[C@H](CO)NC(=O)[C@@H](Cc1cccnc1)NC(=O)[C@@H](Cc1ccc(Cl)cc1)NC(=O)[C@@H](Cc1ccc2ccccc2c1)NC(=O)CNC(=O)c1cccnc1)C(=O)N[C@@H](CCCCNC(=N)N)C(=O)N1CCC[C@H]1C(=O)N[C@H](C)C(N)=O [Example 26b, N-Nicotinyl-Gly-D2Nal-D4ClPhe-D3Pal-Ser-NMePhe(NO2)-DLys(Shik)-Leu-Harg-Pro-DAlaNH2] (Nicotinoyl-G[d2Nal][dPhe(4-Cl)][d3Pal]S[NMePhe(4-NO2)][dK](Shikimoyl)L[hArg]P[dA]-NH2)
  Kb: 0.0437 nM

## CC(C)C[C@H](NC(=O)[C@@H](CCCCNC(=O)c1cccnc1)NC(=O)[C@H](Cc1ccc(O)cc1)N(C)C(=O)[C@H](CO)NC(=O)[C@@H](Cc1cccnc1)NC(=O)[C@@H](Cc1ccc(Cl)cc1)NC(=O)[C@@H](Cc1ccc2ccccc2c1)NC(=O)CNC(=O)c1cccnc1)C(=O)N[C@@H](CCCNC(=N)N)C(=O)N1CCC[C@H]1C(=O)N[C@H](C)C(N)=O [Example 27a, N-Nicotinyl-Gly-D2Nal-D4ClPhe-D3Pal-Ser-NMeTyr-DLys(Nic)-Leu-Arg-Pro-DAlaNH2] (Nicotinoyl-G[d2Nal][dPhe(4-Cl)][d3Pal]S[NMeY][dK](Nicotinoyl)LRP[dA]-NH2)
  Kb: 0.00776 nM

## CC(C)C[C@H](NC(=O)[C@@H](CCCCNC(=O)c1cccnc1)NC(=O)[C@H](Cc1ccc(O)cc1)N(C)C(=O)[C@H](CO)NC(=O)[C@@H](Cc1cccnc1)NC(=O)[C@@H](Cc1ccc(Cl)cc1)NC(=O)[C@@H](Cc1ccc2ccccc2c1)NC(=O)CNC(=O)C1=C[C@@H](O)[C@@H](O)[C@H](O)C1)C(=O)N[C@@H](CCCNC(=N)N)C(=O)N1CC[C@H]1C(=O)N[C@H](C)C(N)=O [Example 27c, N-Shikimyl-Gly-D2Nal-D4ClPhe-D3Pal-Ser-NMeTyr-DLys(Nic)-Leu-Arg-Aze-DAlaNH2] (Shikimoyl-G[d2Nal][dPhe(4-Cl)][d3Pal]S[NMeY][dK](Nicotinoyl)LR[Aze][dA]-NH2)
  Kb: 0.0977 nM

## CC(C)C[C@H](NC(=O)[C@@H](CCCCNC(=O)C1=C[C@@H](O)[C@@H](O)[C@H](O)C1)NC(=O)[C@H](Cc1ccc(O)cc1)N(C)C(=O)[C@H](CO)NC(=O)[C@@H](Cc1cccnc1)NC(=O)[C@@H](Cc1ccc(Cl)cc1)NC(=O)[C@@H](Cc1ccc2ccccc2c1)NC(=O)CCNC(=O)c1cccnc1)C(=O)N[C@@H](CCCNC(=N)N)C(=O)N1CCC[C@H]1C(=O)N[C@H](C)C(N)=O [Example 27d, N-Nicotinyl-3-Aminopropionyl-D2Nal-D4ClPhe-D3Pal-Ser-NMeTyr-DLys(Shikimyl)-Leu-Arg-Pro-DAlaNH 2] ({Nicotinoyl-βAla}-[d2Nal][dPhe(4-Cl)][d3Pal]S[NMeY][dK](Shikimoyl)LRP[dA]-NH2)
  Kb: 0.00178 nM
